According to US7589212B2, “Human protein tyrosine phosphatase inhibitors and methods of use” (Procter & Gamble Company, priority 2006, dated 2009):

Key:
PTP1B = target: T1, PTP1B (Homo sapiens, UniProt P18031); assay: PTP1B inhibition (IC50); assay type: biochemical
T1 sequence (P18031 1-435): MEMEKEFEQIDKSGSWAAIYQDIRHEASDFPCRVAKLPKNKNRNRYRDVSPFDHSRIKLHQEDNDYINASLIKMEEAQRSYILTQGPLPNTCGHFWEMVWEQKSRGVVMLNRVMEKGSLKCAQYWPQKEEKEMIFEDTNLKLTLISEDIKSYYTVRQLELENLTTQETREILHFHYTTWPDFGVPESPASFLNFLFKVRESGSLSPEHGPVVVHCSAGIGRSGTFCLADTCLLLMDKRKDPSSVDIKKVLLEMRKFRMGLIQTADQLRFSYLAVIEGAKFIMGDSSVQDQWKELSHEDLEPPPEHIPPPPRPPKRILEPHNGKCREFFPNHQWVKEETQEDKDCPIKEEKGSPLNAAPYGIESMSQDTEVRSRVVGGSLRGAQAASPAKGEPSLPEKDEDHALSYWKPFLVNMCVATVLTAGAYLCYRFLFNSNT

HPTPβ = HPTPβ (Homo sapiens, UniProt P23467); assay: HPTPβ inhibition (IC50); assay type: biochemical
Sequence of HPTPβ (P23467 23-1997): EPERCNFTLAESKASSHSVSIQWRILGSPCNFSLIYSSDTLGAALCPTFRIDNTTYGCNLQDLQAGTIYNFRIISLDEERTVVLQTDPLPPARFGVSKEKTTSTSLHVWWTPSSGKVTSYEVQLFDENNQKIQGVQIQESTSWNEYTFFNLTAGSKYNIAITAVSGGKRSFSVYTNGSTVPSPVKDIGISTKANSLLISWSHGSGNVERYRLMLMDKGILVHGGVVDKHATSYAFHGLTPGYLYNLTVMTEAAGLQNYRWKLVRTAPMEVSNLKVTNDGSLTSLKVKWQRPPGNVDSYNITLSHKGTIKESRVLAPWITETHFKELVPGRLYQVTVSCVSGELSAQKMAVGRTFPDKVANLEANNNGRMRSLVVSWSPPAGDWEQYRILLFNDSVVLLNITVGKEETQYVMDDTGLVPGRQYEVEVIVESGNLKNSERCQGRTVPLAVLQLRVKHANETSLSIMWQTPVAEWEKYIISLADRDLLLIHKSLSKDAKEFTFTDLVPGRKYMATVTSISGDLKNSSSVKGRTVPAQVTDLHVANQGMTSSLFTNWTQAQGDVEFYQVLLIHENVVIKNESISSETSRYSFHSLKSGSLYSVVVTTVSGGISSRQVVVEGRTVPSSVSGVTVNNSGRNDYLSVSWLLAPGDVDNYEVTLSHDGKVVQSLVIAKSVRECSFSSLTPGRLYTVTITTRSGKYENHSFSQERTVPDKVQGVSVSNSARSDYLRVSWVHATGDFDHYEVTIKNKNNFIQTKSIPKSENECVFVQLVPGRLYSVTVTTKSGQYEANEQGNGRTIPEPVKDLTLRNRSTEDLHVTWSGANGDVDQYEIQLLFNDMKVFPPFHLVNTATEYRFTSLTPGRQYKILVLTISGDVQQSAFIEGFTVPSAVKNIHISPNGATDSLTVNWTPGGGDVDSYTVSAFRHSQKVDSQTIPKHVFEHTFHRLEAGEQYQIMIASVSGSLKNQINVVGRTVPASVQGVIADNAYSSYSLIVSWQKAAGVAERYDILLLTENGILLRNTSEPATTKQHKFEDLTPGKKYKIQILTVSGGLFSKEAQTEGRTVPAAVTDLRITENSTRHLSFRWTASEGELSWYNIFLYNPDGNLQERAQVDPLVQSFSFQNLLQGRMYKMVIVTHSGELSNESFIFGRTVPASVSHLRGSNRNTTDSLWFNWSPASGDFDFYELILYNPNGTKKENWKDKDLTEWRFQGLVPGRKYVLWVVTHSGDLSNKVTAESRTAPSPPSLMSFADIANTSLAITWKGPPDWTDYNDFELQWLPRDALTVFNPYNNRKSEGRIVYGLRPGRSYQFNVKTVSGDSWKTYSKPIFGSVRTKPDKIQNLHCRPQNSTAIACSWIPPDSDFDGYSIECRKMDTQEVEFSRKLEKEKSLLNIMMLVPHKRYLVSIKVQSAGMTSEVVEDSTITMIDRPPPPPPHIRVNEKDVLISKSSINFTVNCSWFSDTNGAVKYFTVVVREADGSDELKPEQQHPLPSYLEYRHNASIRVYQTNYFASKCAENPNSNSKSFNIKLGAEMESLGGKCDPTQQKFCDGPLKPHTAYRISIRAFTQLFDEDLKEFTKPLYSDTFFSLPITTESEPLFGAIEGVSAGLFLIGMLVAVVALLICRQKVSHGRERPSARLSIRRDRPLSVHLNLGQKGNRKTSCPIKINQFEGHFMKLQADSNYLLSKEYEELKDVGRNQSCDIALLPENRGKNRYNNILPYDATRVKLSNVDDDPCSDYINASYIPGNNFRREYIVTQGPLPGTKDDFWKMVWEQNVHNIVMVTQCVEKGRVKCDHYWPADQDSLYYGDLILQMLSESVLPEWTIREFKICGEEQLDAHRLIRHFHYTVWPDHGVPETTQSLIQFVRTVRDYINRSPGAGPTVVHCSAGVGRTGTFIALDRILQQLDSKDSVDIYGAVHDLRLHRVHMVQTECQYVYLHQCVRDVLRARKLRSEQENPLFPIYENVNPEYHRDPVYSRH

Row | Compound | IC50 (PTP1B) [nM] | IC50 (HPTPβ) [nM]
1 | CCCc1nnc(N[C@@H](Cc2ccc(NS(=O)(=O)O)cc2)c2csc(-c3cccs3)n2)s1 [4-((S)-2-(5-Propyl-1,3,4-thiadiazol-2-ylamino)-2-(2-(thiophen-2-yl)thiazol-4-yl)ethyl)phenylsulfamic acid] | 4710 | 0.2
2 | COC(=O)Cc1nnc(N[C@@H](Cc2ccc(NS(=O)(=O)O)cc2)c2csc(-c3cccs3)n2)s1 [4-((S)-2-(5-((Methoxycarbonyl)methyl)-1,3,4-thiadiazol-2-ylamino)-2-(2-(thiophen-2-yl)thiazol-4-yl)ethyl)phenylsulfamic acid] | 1550 | 2
3 | O=S(=O)(O)Nc1ccc(C[C@H](Nc2nnc(Cc3ccccc3)s2)c2csc(-c3cccs3)n2)cc1 [4-((S)-2-(5-Benzyl-1,3,4-thiadiazol-2-ylamino)-2-(2-(thiophen-2-yl)thiazol-4-yl)ethyl)phenylsulfamic acid] | 3860 | 0.6
4 | O=S(=O)(O)Nc1ccc(C[C@H](Nc2nnc(-c3ccccc3)s2)c2csc(-c3ccccc3)n2)cc1 [(S)-4-(2-(5-Phenyl-1,3,4-thiadiazol-2-ylamino)-2-(2-phenylthiazol-4-yl)ethyl)-phenylsulfamic acid] | 3700 | 46

Now those with a lower IC50 (PTP1B), led by results:

Row | IC50 (PTP1B) [nM] | IC50 (HPTPβ) [nM] | Compound
5 | 1400 | 3 | Cc1nnc(N[C@@H](Cc2ccc(NS(=O)(=O)O)cc2)c2csc(-c3ccccc3)n2)s1 [(S)-4-(2-(5-methyl-1,3,4-thiadiazol-2-ylamino)-2-(2-phenylthiazol-4-yl)ethyl)phenylsulfamic acid]
6 | 580 | 0.009 | Cc1nc(Cc2nnc(N[C@@H](Cc3ccc(NS(=O)(=O)O)cc3)c3csc(-c4cccs4)n3)s2)cs1 [4-((S)-2-(5-((2-Methylthiazol-4-yl)methyl)-1,3,4-thiadiazol-2-ylamino)-2-(2-(thiophen-2-yl)thiazol-4-yl)ethyl)phenylsulfamic acid]
